Patent US20110065706A1, “Therapeutic Agents 812” (AstraZeneca AB, priority 2009, published 2011)

Target: T1, human GPR119 (Homo sapiens, UniProt Q8TDV5)
T1 construct: expressed in transfected cells; host or cells: HEK 293s
T1 sequence (Q8TDV5 1-335): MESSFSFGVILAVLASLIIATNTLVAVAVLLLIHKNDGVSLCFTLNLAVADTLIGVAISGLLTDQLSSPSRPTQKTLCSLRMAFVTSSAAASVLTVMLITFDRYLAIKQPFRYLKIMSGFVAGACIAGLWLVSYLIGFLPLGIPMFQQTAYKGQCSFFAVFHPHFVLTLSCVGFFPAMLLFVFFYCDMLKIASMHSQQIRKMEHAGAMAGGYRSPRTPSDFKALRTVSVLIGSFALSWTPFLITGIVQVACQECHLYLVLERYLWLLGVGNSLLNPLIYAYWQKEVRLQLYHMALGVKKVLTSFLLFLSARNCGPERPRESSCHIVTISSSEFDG
Assay: Cyclic AMP (HTRF cAMP) assay for human GPR119, Method A
Format: cell-based
Conditions: for activation at 30 µM: HEK293S, 0.75 h, percent effect at top concentration 30 μM relative to maximum (50 μM Oleoylethanolamide) and minimum (1% DMSO) controls; for activation at 30 µM / EC50: Method A, HEK 293s cells over-expressing human GPR119; for EC50: midpoint of dose response curve, selected examples; for significant activity at a top concentration of 30 μM: human GPR119 cAMP assay, top concentration 30 μM

Row | activation at 30 µM [%] | EC50 [nM] | significant activity at a top concentration of 30 μM | Structure (SMILES)
1 | 41 | – | – | C[C@@H]1CN(C(=O)OC2(C)COC2)CCN1c1ncc(OCc2ccc(S(C)(=O)=O)cc2)cn1 [Example 80, (R)-3-methyloxetan-3-yl 3-methyl-4-(5-(4-(methylsulfonyl)benzyloxy)pyrimi-din-2-yl)piperazine-1-carboxylate]
2 | 66 | 123 | – | CCS(=O)(=O)c1ccc(COc2cnc(N3CCN(C(=O)OC(C)(C)C)CC3)nc2)cc1 [Example 83, Tert-butyl 4-(5-(4-(ethylsulfonyl)benzyloxy)pyrimidin-2-yl)piperazine-1-carboxylate]
3 | 48 | – | – | CC(C)(C)OC(=O)N1CCN(c2ncc(OCc3ccc(S(=O)(=O)C4CC4)cc3)cn2)CC1 [Example 84, Tert-butyl 4-(5-(4-(cyclopropyl-sulfonyl)benzyloxy)pyrimidin-2-yl)pipcrazinc-1-carboxylate]
4 | 48 | – | – | CC(C)c1nc(N2CCN(c3ncc(OCc4ccc(S(C)(=O)=O)cc4)cn3)CC2)no1 [Example 87, 5-Isopropyl-3-(4-(5-(4-(methylsulfonyl)benzyloxy)pyrimidin-2-yl)piperazin-1-yl)-1,2,4-oxadiazole]
5 | 68 | – | – | CC(C)(C)OC(=O)N1CCN(c2ncc(OCc3ccc(S(=O)(=O)CCN4CCOCC4)cc3)cn2)CC1 [Example 92, Tert-butyl 4-(5-(4-(2-morpholinoethylsulfonyl)benzyloxy)pyrimidin-2-yl)piperazine-1-carboxylate]
6 | 82 | – | – | C[S+]([O-])c1ccc(COc2cnc(N3CCN(C(=O)OC(C)(C)C)CC3)nc2)cc1 (stereo not drawn) [Example 93, Tert-butyl 4-(5-(4-(methylsulfinyl)benzyloxy)pyrimidin-2-yl)piperazine-1-carboxylate]
7 | 55 | – | – | C[C@@H]1CN(C(=O)OC2(C(F)(F)F)COC2)CCN1c1ncc(OCc2ccc(S(C)(=O)=O)cc2)cn1 [Example 110, (R)-3-(trifluoromethyl) oxetan-3-yl 3-mcthyl-4-(5-(4-(mcthylsulfonyl)benzyloxy)pyrimidin-2-yl)piperazine-1-carboxylate]
8 | – | – | did not show significant activity | N#Cc1cnccc1COc1cnc(N2CCN(C(=O)OC3CCOC3)CC2)nc1 (stereo not drawn) [tetrahydrofuran-3-yl 4-[5-[(3-cyano-4-pyridyl)methoxy]pyrimidin-2-yl]piperazine-1-carboxylate]
9 | – | – | did not show significant activity | CS(=O)(=O)c1ccc(COc2cnc(N3CCN(C(=O)OC4CCOC4)CC3)nc2)cc1 (stereo not drawn) [tetrahydrofuran-3-yl 4-[5-[(4-methylsulfonylphenyl)methoxy]pyrimidin-2-yl]piperazine-1-carboxylate]
10 | – | – | did not show significant activity | N#Cc1cnccc1COc1cnc(N2CCN(C(=O)OC3CCOCC3)CC2)nc1 [tetrahydropyran-4-yl 4-[5-[3-cyano-4-pyridyl)methoxy]pyrimidin-2-yl]piperazine-1-carboxylate]
11 | – | – | did not show significant activity | CS(=O)(=O)c1ccc(COc2cnc(N3CCN(C(=O)OC4CCOCC4)CC3)nc2)cc1 [tetrahydropyran-4-yl 4-[5-[(4-methylsulfonylphenyl)methoxy]pyrimidin-2-yl]piperazine-1-carboxylate]
12 | – | – | did not show significant activity | C[C@@H]1CN(C(=O)OC2CCOCC2)CCN1c1ncc(OCc2ccc(S(C)(=O)=O)cc2)cn1 [tetrahydropyran-4-yl (3R)-3-methyl-4-[5-[(4-methylsulfonylphenyl)methoxy]pyrimidin-2-yl]piperazine-1-carboxylate]

The remaining lines, values behind:

Row | Structure (SMILES) | activation at 30 µM [%] | EC50 [nM] | significant activity at a top concentration of 30 μM
13 | CC1(OC(=O)N2CCN(c3ncc(OCc4ccncc4C#N)cn3)CC2)COC1 [Example 81, 3-methyloxetan-3-yl 4-(5-((3-cyanopyridin-4-yl)methoxy)pyrimi-din-2-yl)piperazine-1-carboxylate] | 143 | – | –
14 | C[C@@H]1CN(C(=O)OC2CCOCC2)CCN1c1ncc(OCc2ccncc2C#N)cn1 [Example 82, (R)-Tetrahydro-2H-pyran-4-yl 4-(5-((3-cyanopyridin-4-yl)methoxy)pyrimidin-2-yl)-3-methylpiperazine-1-carboxylate] | 102 | 675 | –
15 | CC(C)c1nc(N2CCN(c3ncc(OCc4ccncc4C#N)cn3)CC2)no1 [Example 85, 4-((2-(4-(5-Isopropyl-1,2,4-oxadiazol-3-yl)piperazin-1-yl)pyrimidin-5-yloxy)methyl)nicotinonitrile] | 167 | – | –
16 | CS(=O)(=O)c1ccc(COc2cnc(N3CCN(c4noc(C(F)(F)F)n4)CC3)nc2)cc1 [Example 88, 3-(4-(5-(4-(methylsulfonyl)bcnzyloxy)pyrimidin-2-yl)pipcrazin-1-yl)-5-(trifluoromcthyl)-1,2,4-oxadiazole] | 79 | – | –
17 | CC(C)c1nc(N2CCN(c3ncc(OCc4ccc(S(C)(=O)=O)cc4)cn3)[C@H](C)C2)no1 [Example 89] | 73 | – | –
18 | C[C@@H]1CN(c2noc(C(F)(F)F)n2)CCN1c1ncc(OCc2ccc(S(C)(=O)=O)cc2)cn1 [Example 90, (R)-3-(3-methyl-4-(5-(4-(mcthylsulfonyl)bcnzyloxy)pyrimidin-2-yl)pipcrazin-1-yl)-5-(trifluoromcthyl)-1,2,4-oxadiazole] | 75 | 26 | –
19 | CC(C)(C)OC(=O)N1CCN(c2ncc(OCc3ccc([S+]([O-])C(F)(F)F)cc3)cn2)CC1 (stereo not drawn) [Example 91, Tert-butyl 4-(5-(4-(trifluoromethylsulfinyl)benzyloxy)pyrimidin-2-yl)piperazine-1-carboxylate] | 32 | – | –
20 | CC(C)C(=O)Nc1ncc(COc2cnc(N3CCN(C(=O)OC(C)(C)C)CC3)nc2)cn1 [Example 94, Tert-butyl 4-(5-((2-isobutyramidopyrimidin-5-yl)methoxy)pyrimidin-2-yl)piperazine-1-carboxylate] | 44 | – | –
21 | C[C@@H]1CN(C(=O)O[C@H](C)C(F)(F)F)CCN1c1ncc(OCc2ccncc2C#N)cn1 [Example 103, (R)—((R)-1,1,1-trifluoropropan-2-yl) 4-(5-((3-cyanopyridin-4-yl)methoxy)pyrimidin-2-yl)-3-methylpiperazine-1-carboxylate] | 244 | – | –
22 | C[C@@H]1CN(C(=O)O[C@@H](C)C(F)(F)F)CCN1c1ncc(OCc2ccncc2C#N)cn1 [Example 104, (R)-((S)-1,1,1-trifluoropropan-2-yl)4-(5-((3-cyanopyridin-4-yl)methoxy)pyrimidin-2-yl)-3-mcthylpipcrazine-1-carboxylate] | 315 | – | –
23 | N#Cc1cnccc1COc1cnc(N2CCN(C(=O)OCC(F)(F)F)CC2)nc1 [Example 106, 2,2,2-trifluorocthyl 4-(5-((3-cyanopyridin-4-yl)mcthoxy)pyrimidin-2-yl)pipcrazinc-1-carboxylate] | 193 | – | –
24 | C[C@@H]1CN(c2noc(C3(C)COC3)n2)CCN1c1ncc(OCc2ccncc2C#N)cn1 [Example 107, (R)-4-((2-(2-methyl-4-(5-(3-methyloxetan-3-yl)-1,2,4-oxadiazol-3-yl)piperazin-1-yl)pyrimidin-5-yloxy)methyl)nicotinonitrile] | 188 | – | –
25 | C[C@@H]1CN(C(=O)OC2(C(F)(F)F)COC2)CCN1c1ncc(OCc2ccncc2C#N)cn1 [Example 111, (R)-3-(trifluoromcthyl) oxetan-3-yl 4-(5-((3-cyanopyridin-4-yl)mcthoxy)pyrimidin-2-yl)-3-mcthylpipcrazine-1-carboxylate] | 171 | – | –
26 | COc1cc(COc2cnc(N3CCN(C(=O)OC(C)(C)C)CC3)nc2)cc(OC)n1 [tert-butyl 4-[5-[(2,6-dimethoxy-4-pyridyl)methoxy]pyrimidin-2-yl]piperazine-1-carboxylate] | – | – | did not show significant activity
27 | CC(=O)Nc1ncc(COc2cnc(N3CCN(C(=O)OC(C)(C)C)CC3)nc2)cn1 [tert-butyl 4-[5-[(2-acetamidopyrimidin-5-yl)methoxy]pyrimidin-2-yl]piperazine-1-carboxylate] | – | – | did not show significant activity
28 | Cc1cc(COc2cnc(N3CCN(C(=O)OC(C)(C)C)CC3)nc2)ccn1 [tert-butyl 4-[5-[(2-methyl-4-pyridyl)methoxy]pyrimidin-2-yl]piperazine-1-carboxylate] | – | – | did not show significant activity
29 | CN1CCC(NC(=O)c2ccc(COc3cnc(N4CCN(C(=O)OC(C)(C)C)CC4)nc3)cc2)CC1 [tert-butyl 4-[5-[[4-[(1-methyl-4-piperidyl)carbamoyl]phenyl]methoxy]pyrimidin-2-yl]piperazine-1-carboxylate] | – | – | did not show significant activity
30 | CN1CCC(N(C)C(=O)c2ccc(COc3cnc(N4CCN(C(=O)OC(C)(C)C)CC4)nc3)cc2)CC1 [tert-butyl 4-[5-[[4-[methyl-(1-methyl-4-piperidyl)carbamoyl]phenyl]methoxy]pyrimidin-2-yl]piperazine-1-carboxylate] | – | – | did not show significant activity
